The results in this text go back to paper PMC12844237, “A Novel Quinolone JH62 (E-2-(Tridec-4-en-1-yl)-quinolin-4(1H)-one) from Pseudomonas aeruginosa Exhibits Potent Anticancer Activity” (Microorganisms, 2025).

Each structure is given as a SMILES string.

In assay [1] the test system is MEF: murine embryonic fibroblast. Nature of the assay: WST-1 cell viability, MEF. The note with it: Mus musculus, non-cancer cell line. In kind it is cell-based. From the text:
(§1) Different cells were utilized as follows: MEF: murine embryonic fibroblast (RRID: CVCL_L690); AML12: mouse liver cell lines (RRID: CVCL_0140); WI-38: human lung fibroblast cell lines (RRID: CVCL_0579); THLE-2: human liver epithelial cell lines (RRID: CVCL_3803); A549: human lung cancer cell lines (RRID: CVCL_0023); HEPG2: human liver cancer cell lines (RRID: CVCL_0027); HEP3B: human hepatoma cell lines (RRID: CVCL_0326); BxPC3: human pancreatic cancer cell lines (RRID: CVCL_0186); U87: human primary glioblastoma cell lines (RRID: CVCL_0022); DU145: human prostate cancer cell lines (RRID: CVCL_0105); MCF7: human breast cancer cell lines (RRID: CVCL_0031); HeLa: human cervical cancer cell lines (RRID: CVCL_0030); HCT116: human colon cancer cell lines (RRID: CVCL_0291). Cells were maintained in Dulbecco’s modified Eagle’s medium (DMEM, Gibco) supplemented with L-glutamine (Lonza) (2 mM), 10% fetal bovine serum (FBS, Hyclone), 1 × non-essential amino acids, and sodium pyruvate (1 mM). THLE-2 cells were maintained in THLE-2 Cell Complete Medium (Zhong Qiao Xin Zhou, Shanghai, China). Cells were incubated at 37 °C in a humidified incubator with 5% CO2. […]
(§2) Cell viability was assessed using the WST-1 assay, based on a previously reported method with slight modifications. […] Absorbance at OD450 was measured using a microplate reader (Synergy H1; BioTek Instruments, Winooski, VT, USA).
For orientation: Tetrazolium assays rely on reduction of a dye to a coloured formazan, in cell work by metabolically active cells.

The test system of assay [2] is WI-38: human lung fibroblast cell lines. Nature of the assay: WST-1 cell viability, WI-38. In kind it is cell-based. The note with it: WI-38, non-cancer cell line.
Text: as §1, §2

Assay [3] has as its system THLE-2: human liver epithelial cell lines. The experiment in a line: WST-1 cell viability, THLE-2. The format is cell-based. The note with it: THLE-2, non-cancer cell line.
Text: as §1, §2

The test system of assay [4] is HEP3B: human hepatoma cell lines. The experiment in a line: WST-1 cell viability, HEP3B. In kind it is cell-based. Conditions: HEP3B (liver) cancer cell line.
Text: as §1, §2

Assay [5] deals with BxPC3: human pancreatic cancer cell lines. The experiment in a line: WST-1 cell viability, BxPC3. In kind it is cell-based. Conditions: BXPC-3, BxPC3 (pancreatic) cancer cell line.
Text: as §1, §2

In assay [6] the test system is U87: human primary glioblastoma cell lines. The experiment in a line: WST-1 cell viability, U87. In kind it is cell-based. Conditions: U87 (glioblastoma) cancer cell line.
Text: as §1, §2

Assay [7] deals with DU145: human prostate cancer cell lines. Nature of the assay: WST-1 cell viability, DU145. In kind it is cell-based. Conditions: DU-145, DU145 (prostate) cancer cell line.
Text: as §1, §2

Assay [8] deals with MCF7: human breast cancer cell lines. Nature of the assay: WST-1 cell viability, MCF7. In kind it is cell-based. The note with it: MCF7 (breast) cancer cell line.
Text: as §1, §2

For assay [9], the system named is A549 lung cancer cell colonies. The experiment in a line: Cell colony formation assay. The format is cell-based, human. Conditions: compared to the control group. The text has this:
The cell colony formation assay, an in vitro method used to evaluate the proliferative capacity of cancer cells, was employed.

Assay [10] deals with A549 cells. Nature of the assay: Mitochondria JC-1 staining (mitochondrial membrane potential). In kind it is cell-based, human. The note with it: A549, 25 μM, red fluorescence decreasing within 2–3 h, lowest by 4 h. As to the method: Mitochondrial membrane potential and mitochondria localization were assessed by JC-1 and MitoTracker staining based on previously published methods. A549 cells were cultured at 37 °C and 5% CO2 in Dulbecco’s modified Eagle’s medium (DMEM), supplemented with 10% heat-inactivated FBS (Thermo Fisher Scientific, Waltham, MA, USA) and L-Glutamine (Thermo Fisher Scientific, Waltham, MA, USA) (2 mM). An aliquot of 1 mL of JH62 (25 μM) solution was added to the cell cultures. […] Cells were washed with dilution buffer, and photos were taken using a microscope. For MitoTracker staining, cells grown on 12 mm diameter round glass coverslips in 24-well plates were incubated with MitoTracker Red diluted 1:2000 or 1:20,000 from a stock solution (1 mM) in culture medium for 45 min at 37 °C. Cells were then washed with PBS and fixed with ice-cold 3.2% paraformaldehyde in PBS for 20 min at room temperature. After washing, coverslips were mounted on glass slides using an appropriate mounting medium. […]
In cancer cells, mitochondria serve as central organelles for energy production and survival, critically influencing cell viability, immune evasion, tumor progression, and therapy resistance. […] We used the potential-sensitive fluorescent probe JC-1, which emits green fluorescence as a monomer at low concentrations and forms red-fluorescent aggregates in mitochondria with intact ΔΨm.

For assay [11], the system named is pqs gene cluster in ΔpqsA mutant strain. Nature of the assay: Effect of exogenous JH62 on transcription of the pqs gene cluster. The format is cell-based, Pseudomonas aeruginosa. Conditions: ΔpqsA mutant supplemented with exogenous JH62. From the text: Since the pqs gene cluster is responsible for JH62 biosynthesis, we determined whether JH62 itself could regulate the expression of this cluster, potentially establishing a feedback loop. To this end, we supplemented the JH62-deficient ΔpqsA mutant with exogenous JH62 and assessed the pqs cluster transcription.

Assay [12] concerns non-cancer cells (MEF, AML12, WI-38, and THLE-2). The experiment in a line: WST-1 cell viability, panel of non-cancer cells. The format is cell-based. Conditions: across non-cancer cells (MEF, AML12, WI-38, and THLE-2). On the procedure: (§3) Cell viability was assessed using the WST-1 assay, based on a previously reported method with slight modifications. Briefly, cells were seeded at 1 × 10^4 cells per well in 96-well plates and then treated with different doses of JH62 or DOX for 0–72 h. The cells used included non-cancer cells (MEF, AML12, WI-38, and THLE-2) and cancer cells (A549, HEPG2, HEP3B, BxPC3, U87, DU145, MCF7, HeLa, and HCT116). The WST-1 reagent (Roche, Shanghai, China) was added to each well (10% vol/vol final concentration), followed by incubation for 3 h at 37 °C. Absorbance at OD450 was measured using a microplate reader (Synergy H1; BioTek Instruments, Winooski, VT, USA).

Assay [13] has as its system cancer cell lines. The experiment in a line: WST-1 cell viability, panel of cancer cell lines. The format is cell-based. The note with it: Homo sapiens; across the tested cancer cell lines. As to the method: as §3
Assay [14] relates to A549 lung cancer cells. Nature of the assay: Cell death inhibitor rescue (zVAD-fmk, Nec-1). The format is cell-based, human. The note with it: A549, zVAD-fmk and Nec-1 individually or in combination. The text has this: Therefore, we investigated whether zVAD-fmk and Nec-1 could attenuate JH62-induced cell death in A549 lung cancer cells.

One may read the IC50 as the concentration at which inhibition is half-maximal.

With `CCCCCCCC/C=C/CCCc1cc(=O)c2ccccc2[nH]1` [JH62, E-2-(tridec-4-en-1-yl)-quinolin-4(1H)-one], the IC50 in [1] was 47.2 ± 4.8 µM; in [2], 44.1 ± 0.4 µM; in [3], 27.3 ± 4.9 µM; in [4], 10.8 ± 0.4 µM; in [5], 15 ± 0.4 µM; in assay [6], 10 ± 0.2 µM. Also, the IC50 in assay [7] is 13.8 ± 3.3 µM; in assay [8], 13.9 ± 1.3 µM; in assay [12], over 25 µM; in assay [13], under 20 µM. The “reduced the number of A549 lung cancer cell colonies” value in [9] (6.3 μM) was determined as 34%; in assay [9] (12.5 μM), 71%. Moreover, in [10], the “mitochondrial membrane potential (JC-1 red fluorescence)” value is recorded as “disrupted the mitochondrial membrane potential”. Besides, the pqsH transcription result in assay [11] is “unaffected”. Besides, the “transcription of pqsA, pqsB, pqsC, pqsD, and pqsE” value in assay [11] was “markedly upregulated”. Further, the “cell death type (reversal by zVAD-fmk and Nec-1)” value in assay [14] is “not associated with apoptosis or necroptosis”.
